Laboratory results as given in US20250319115A1, “Compositions and Methods for Modulating Cytokines” (Flagship Pioneering Innovations VII, LLC, priority 2022, published 2025).

Key:
[1] = tested on: IL-4 signaling pathway; experiment: HEK-Blue IL-4 SEAP reporter assay; type: cell-based
Protocol: The effects of putative inhibitors on pro-inflammatory cytokine pathways are assessed using HEK-Blue cells engineered for the detection of bioactive cytokines via activation of JAK/STAT pathways and subsequent expression of the SEAP reporter gene. Cells are treated with their relevant cytokines+/−peptides or control antibodies, and 20 hours after treatment activation of the relevant cytokine receptor is determined via SEAP expression through mixing cell supernatants with a Quanti-Blue colorimetric reagent and measuring optical density at 600 nm.
Reporter lines HEK-Blue TL-4/TL-15/IFN-alpha were cultured in DMEM with GlutaMAX and 10% HI FBS (Gibco). Cells were seeded into black 96-well optical clear flat-bottomed PhenoPlates at densities of 25000 cells/well and 100 uL/well and allowed to rest overnight in a 37 C incubator with 5% CO2. After 24 hours, cells were treated with 10 μL of their relevant cytokines (StemCell Technologies) at the previously determined EC75 for activation (1.164 ng/mL for HEK-Blue IL-4, 2.26 ng/mL for HEK-Blue IL-15, and 0.456 ng/mL for HEK-Blue IFN-alpha), with or without 10 μL of peptides (5 uM final concentration) or control antibodies (1 ug/well). Cells were kept overnight in a 37 C incubator with 5% C02.
20-22 hours after treatment, 20 μL of the cell supernatants were collected and transferred to 96-well white flat opaque-bottom plates (Costar) and each sample was mixed with 180 μL of Quanti-Blue reagent. Colorimetric reactions were allowed to develop in a 37 C incubator with 5% C02 for a certain duration of time (3 hours for HEK-Blue IL-4, 2 hours for HEK-Blue IL-15, and 1 hour for IFN-alpha). Assay plates were then removed from the incubator and the optical density of each well was measured at 600 nm on a GloMax plate reader. Relative activation of the cytokine signaling pathway in question was determined by ratioing the optical density of each sample to the average optical density for the cytokine-only treated cells from the same plate.

[2] = tested on: primary human CD8+ T cells; experiment: T cell activation markers in isolated CD8+ T cells +/- CD3/CD28 (ELISA, CD69 flow cytometry); type: cell-based
Protocol: To determine the effect of the Target Protein on T cell activity, the Target Protein, irrelevant proteins, a single amino acid mutant Target Protein and controls were applied to primary human T cells isolated from Peripheral Blood Mononuclear Cells (PBMCs)+/−CD3/CD28. 24 hours later the levels of extra-cellular CD69, IL-2, and TNFalpha (72 hours for IFN-gamma) were evaluated.
Isolation of PBMCfrom Leukopak: The isolation of peripheral blood mononuclear cells (PBMC) from a leukopak sample was conducted using the EasySep™ Direct Human PBMC Isolation Kit (Cat #19654, StemCell Technologies, Vancouver, BC, Canada) following the manufacturer's instructions. A leukopak sample was prepared within a volume range of 125 mL and added to a T-75 cm2 cell culture flask. EDTA was added to the sample to achieve a final concentration of 6 mM. The Isolation Cocktail provided in the kit was added to the sample without vortexing, and the sample was mixed and incubated at room temperature (RT) for 5 minutes. EasySep buffer was added to double the original sample volume, followed by the addition of vortexed RapidSpheres™. The flask was placed into a magnet and incubated at RT for 5 minutes. The cell suspension was carefully pipetted into a new T-75 cm2 flask, and RapidSpheres™ were added to the enriched cells. The flask was placed back into the magnet for a second separation at RT for 5 minutes. Finally, the cell suspension was carefully pipetted into a new tube or centrifuge bottle, and the isolated PBMCs were ready for use.
Isolation of primary human T-cells: Following the isolation of PBMCs, CD8^+ T cells were isolated using the EasySep™ Human CD8^+ T Cell Isolation Kit (Cat #17953, StemCell Technologies, Vancouver, BC, Canada) according to the manufacturer's instructions. The PBMC sample was prepared at a concentration of […] within a volume range of 2 mL and added to a 5 mL polystyrene round-bottom tube. The Isolation Cocktail provided in the kit (50 μL/mL of sample) was added to the sample without vortexing, mixed, and incubated at RT for 5 minutes. RapidSpheres™ were vortexed for 30 seconds to ensure even dispersion and then added to the sample at a concentration of 50 μL/mL of sample. The EasySep buffer was added to top up the sample to a total volume of 2.5 mL, and the sample was mixed by gently pipetting up and down 2-3 times. The tube (without lid) was placed into the magnet and incubated at RT for 3 minutes. After incubation, the magnet was picked up, and in one continuous motion, the magnet and tube were inverted, pouring the enriched cell suspension into a new tube. The isolated CD8^+ T cells were now ready for use.
Peptide treatment: Isolated CD8^+ T cells were plated in a 96-well format plate at a density of 1×10^5 cells per well. […]

[3] = tested on: CD3/CD28 (TransAct) activated PBMCs; experiment: PBMC cytokine release by Cytometric BeadArray, Inhibition format (peptide with anti-CD3/CD28 T-cell activator); type: cell-based, human; parameters: key to Inhibition by Analyte: IL-1b / Inhibition by Analyte: IL-2 / Inhibition by Analyte: TNF / Inhibition by Analyte: IP-10 / Inhibition by Analyte: IL-10: X = a hit with significant activation or inhibition of relevant cytokine release; conditions: peptide applied with anti-CD3/CD28 T-cell activator, 24 hours, supernatant CBA
Protocol: Peripheral Blood Mononuclear Cells were seeded+/−the T-cell activator […] and +/−peptides for 24-48 hours. Cytokines were measured from the supernatant after incubation by CBA Cytometer.
Thawing PBMCs: PBMCs were thawed by pre-warming TexMACS media (Miltenyi Biotech) in 20 ml aliquots-1-50 ml conical per donor. After the media was warmed to 37° C., cells were removed from liquid nitrogen and brought to the tissue culture hood. For each donor, 1 ml of media from the warmed aliquot was added to the frozen vial and mixed up and down. The media plus thawed cells were then added back to the 50 ml conical. This was repeated until all the cells were thawed and added to the 50 ml tube. Continue with other donors if used. Spin cells for 5 min at 400×g. Supernatant was aspirated and cells resuspended at ˜10*10^6 cells/ml (see vial for cell number).
PBMC Plating: Frozen PBMCs from normal, healthy, human volunteers (StemCell Technologies) were thawed and plated at 250,000 cells/well. After PBMCs were thawed and resuspended at […], cells were then counted (Countess III, Thermo Scientific) and adjusted based on counts to […]. Take the number of PBMCs determined by number of wells for the experiment, for example, 10 wells would need 2.5*10^6 cells total or 0.250 ml. The cells needed for the experiment are then transferred to another conical tube. Warmed TexMACS media is added so that the final concentration is 250,000 cells/190 ul media, for example, 10 wells would need 1.9 ml (190 ul×10 wells) of media total minus 0.250 ml of cells (1.9 ml-0.250 ml) or 1.65 ml of media added to the 0.250 ml of cells. Add 190 ul of cells plus media to the 96 well U-bottom plate. Place in incubator until dilutions are made and ready.
Peptide Dilutions: Ideally, all peptides should be at a starting concentration of at least 10 mM, especially for those in DMSO (ATCC) to reach a final concentration of 1 uM (H2O) or 0.5 uM (DMSO). Dilutions of all test articles should be made at 20× the final concentration, for example, a final concentration of 1 uM peptide would need to be made at 20 uM.
Reagent Dilution: Dilutions are made in TexMACS media, enough for 10 ul/well in triplicate (30 ul of a 20×). Activator—CD3/CD28 (TransAct; Miltenyi Biotech) or cytokine will be at 21× and added after the 45-minute incubation with peptides. Be sure to include relevant controls—Positive: TransAct+Cells, Negative: Vehicle+Cells. Dilutions should also be made in a ultra-low binding plate (Corning).
Assay Procedure: Peptide Treatment: Start assay by thawing the cells and plating in a 96 well, U-bottom tissue culture plate (Corning) as described above. Cell plates are placed in a tissue culture incubator (5% CO2, 37° C.). While cells are in the incubator, start making dilutions (optimally 1 hr or less) as described above. Cell plates are removed from the incubator and 10 ul of the 20× dilutions are added to the relevant wells. After the addition of inhibitors, cell plates are placed in the tissue culture incubator for 45 minutes. The plates are removed from the incubator and 10 ul of 21× TransAct is added to the relevant wells*. Plates are then returned to the incubator and incubated for 24 hours. After 24 hours, plates are spun for 5 minutes at 400×g.
* Activation: This assay can be run in two different formats—Activation and Inhibition. The procedure is the same except no TransAct is needed in the peptide wells for Activation. TransAct is only needed in the control wells. The purpose of this procedure is to determine the possible response from peptides alone.
Cytometric BeadArray (CBA): After the spin, supernatants (˜150 ul) are transferred to a new, ultra-low binding U-bottom plate. Supernatants are then frozen at −20° C. until thawed for CBA (BD) to determine levels of human IL-2, TNFα, IL-1b, IP-10, IL-10, and IFNg. CBA was run according to the manufacturers protocol.

[4] = CD8+ T cells, 10 μM, CD3/CD28, 24 hours, ELISA

SEQ ID NO: 4227: novel peptide capable of inhibiting pro-inflammatory cytokine pathways (LAVFVIIRNLSDYLSFFFPFLLELLAVEEHHAYL; listed as Homo sapiens)
inhibitor of the IL-4 signaling pathway (grade in words) ([1]; FIG. 9): moderate
Relative activity (compared to cytokine only controls), Cytokine IL-4 ([1]; peptide 5 uM, cytokine at EC75, SEAP OD 600 nm): −50%

SEQ ID NO: 4524: novel, secreted peptide that enhances T cell activation (LDFIRAFLLLLVASVPGKIGSQNLTAQRPPVATSFLQMESSEPTVRK; listed as Homo sapiens)
T cell activation markers in CD8+ T cells (TNFα, IL-2, CD69) ([2]; 10 μM vs scrambled protein, with CD3/CD28 antibody cocktail, 24 hours): increases
T-cell activation marker IL-2 [2, 4]: significantly up-regulates
T-cell activation marker TNFalpha [2, 4]: significantly up-regulates
T-cell activation marker CD69 ([2]; CD8+ T cells, 10 μM, CD3/CD28, 24 hours, flow cytometry): significantly up-regulates
Inhibition by Analyte: IL-1b [3]: X
Inhibition by Analyte: IL-2 [3]: X
Inhibition by Analyte: IP-10 [3]: X
Inhibition by Analyte: TNF [3]: X
